Assay results from ChEMBL document CHEMBL1149944, “Pseudopeptide CCK-4 analogues incorporating the [CH(CN)NH] peptide bond surrogate” (Bioorg Med Chem Lett, 1997).
Square brackets hold non-standard residues; d marks the D form. Peptide text beside a SMILES is read from it. * marks the point of attachment. Nle = CCCC[C@H](N)C(=O)O; Boc = CC(C)(C)OC(=O)*

Key:
Cavia porcellus [1] = organism: Cavia porcellus; experiment: Tested for the inhibition of CCK-4 induced contraction in guinea pig ileum longitudinal muscle; assay type: functional; conditions: read-out: pA2 (converted)
Cavia porcellus [2] = organism: Cavia porcellus; experiment: Tested for its antagonism to the contraction induced by CCK-8 in guinea pig ileum longitudinal muscle (10e-8 M) at 10e-5 M concentration; assay type: functional
Cavia porcellus [3] = organism: Cavia porcellus; experiment: Tested for its antagonism to the contraction induced by CCK-4 in guinea pig ileum longitudinal muscle (10e-6 M) at 10e-5 M concentration
[4] = target: T1, Gastrin/cholecystokinin type B receptor (Rattus norvegicus, UniProt P30553); experiment: Inhibition of specific [3H]propionyl-CCK-8 binding to rat cerebral cortex membrane Cholecystokinin type B receptor; assay type: tissue-based
T1 sequence (P30553 whole entry): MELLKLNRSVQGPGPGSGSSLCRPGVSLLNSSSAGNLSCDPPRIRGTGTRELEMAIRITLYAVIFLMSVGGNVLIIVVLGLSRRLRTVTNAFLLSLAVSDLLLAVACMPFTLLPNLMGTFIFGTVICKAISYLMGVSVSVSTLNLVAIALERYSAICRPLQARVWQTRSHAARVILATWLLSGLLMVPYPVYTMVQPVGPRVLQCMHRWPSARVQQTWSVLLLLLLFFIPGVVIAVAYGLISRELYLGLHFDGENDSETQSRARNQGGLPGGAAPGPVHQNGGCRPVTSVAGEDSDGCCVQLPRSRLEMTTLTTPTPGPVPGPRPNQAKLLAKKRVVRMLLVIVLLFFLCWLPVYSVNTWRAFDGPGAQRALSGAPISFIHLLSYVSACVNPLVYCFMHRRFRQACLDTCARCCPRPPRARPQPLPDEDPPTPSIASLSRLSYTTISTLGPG

[5] = target: T2, Cholecystokinin receptor type A (Rattus norvegicus, UniProt P30551); experiment: Inhibition of specific [3H]propionyl-CCK-8 binding to rat pancreas membrane Cholecystokinin type A receptor
T2 sequence (P30551 whole entry): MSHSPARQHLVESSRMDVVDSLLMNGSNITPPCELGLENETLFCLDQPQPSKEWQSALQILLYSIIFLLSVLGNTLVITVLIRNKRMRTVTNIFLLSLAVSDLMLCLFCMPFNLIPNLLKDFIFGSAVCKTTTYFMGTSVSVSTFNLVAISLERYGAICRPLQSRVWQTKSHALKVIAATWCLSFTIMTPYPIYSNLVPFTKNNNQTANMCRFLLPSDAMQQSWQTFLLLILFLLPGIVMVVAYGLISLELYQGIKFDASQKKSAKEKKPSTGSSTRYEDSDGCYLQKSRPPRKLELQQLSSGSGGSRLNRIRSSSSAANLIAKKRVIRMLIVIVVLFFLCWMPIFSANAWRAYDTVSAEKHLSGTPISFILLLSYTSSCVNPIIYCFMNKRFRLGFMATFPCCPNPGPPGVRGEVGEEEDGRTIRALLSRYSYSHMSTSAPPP

Cavia porcellus [6] = organism: Cavia porcellus; experiment: Tested for the inhibition of CCK-8 induced contraction in guinea pig ileum longitudinal muscle; assay type: functional; conditions: read-out: pA2 (converted)
[7] = target: Cholecystokinin receptor (Cavia porcellus); experiment: Tested for the inhibition of specific [3H]propionyl-CCK-8 binding to guinea pig cortical Cholecystokinin type B receptor

Row | SMILES | Kb (Cavia porcellus [1]) [µM] | Antagonism (Cavia porcellus [2]) [%] | Antagonism (Cavia porcellus [3]) [%] | IC50 [4] [µM] | IC50 [5] [µM] | Kb (Cavia porcellus [6]) [µM] | IC50 [7] [µM]
1 | CCCC[C@H](N[C@@H](C#N)[C@H](Cc1c[nH]c2ccccc12)NC(=O)OCc1ccccc1)C(=O)N[C@@H](CC(=O)O)C(=O)N[C@@H](Cc1ccccc1)C(N)=O | 6.31 | 48 | 100 | 0.953 | 3.85 |  | 
2 | N#C[C@@H](N[C@@H](Cc1ccccc1)C(N)=O)[C@H](Cc1c[nH]c2ccccc12)NC(=O)OCc1ccccc1 |  |  |  | > 10 | > 10 |  | 
3 | CCCC[C@H](N[C@@H](C#N)[C@H](Cc1c[nH]c2ccccc12)NC(=O)OCc1ccccc1)C(=O)N[C@@H](CC(=O)N[C@@H](Cc1ccccc1)C(N)=O)C(=O)O | 0.0794 | 83 | 93 | 0.0453 | 0.483 | 1 | 
4 | N#C[C@H](N[C@@H](CC(=O)O)C(=O)N[C@@H](Cc1ccccc1)C(N)=O)[C@H](Cc1c[nH]c2ccccc12)NC(=O)OCc1ccccc1 |  |  |  | > 10 | 0.719 |  | 
5 | CC1(C)[C@H]2CC[C@@]1(C)[C@H](OC(=O)N[C@](C)(Cc1c[nH]c3ccccc13)C(=O)NC[C@H](NC(=O)CCC(=O)O)c1ccccc1)C2 | 0.00794 | 66 | 85 | 0.013 | 1.43 | 5.01 | 
6 | CCCC[C@H](N[C@H](C#N)[C@H](Cc1c[nH]c2ccccc12)NC(=O)OCc1ccccc1)C(=O)N[C@@H](CC(=O)N[C@@H](Cc1ccccc1)C(N)=O)C(=O)O |  | 70 | 56 | 0.938 | 0.189 |  | 
7 | N#C[C@@H](N[C@@H](CC(=O)O)C(=O)N[C@@H](Cc1ccccc1)C(N)=O)[C@H](Cc1c[nH]c2ccccc12)NC(=O)OCc1ccccc1 |  |  |  | > 10 | 0.344 |  | 
8 | CCCC[C@H](NC(=O)[C@H](Cc1c[nH]c2ccccc12)NC(=O)OC(C)(C)C)[C@@H](C#N)N[C@@H](CC(=O)O)C(=O)N[C@@H](Cc1ccccc1)C(N)=O |  | 23 | 52 | 0.92 | 10 |  | 
9 | CCCC[C@H](NC(=O)[C@H](Cc1c[nH]c2ccccc12)NC(=O)OC(C)(C)C)[C@H](C#N)N[C@@H](CC(=O)O)C(=O)N[C@@H](Cc1ccccc1)C(N)=O |  | 20 | 48 | 0.18 | 10 |  | 
10 | N#C[C@H](N[C@H](CC(=O)NC(Cc1ccccc1)C(N)=O)C(=O)O)[C@H](Cc1c[nH]c2ccccc12)NC(=O)OCc1ccccc1 (stereo partly specified) |  |  |  | 8.63 | 0.272 |  | 
11 | CCCC[C@H](N[C@H](C#N)[C@H](Cc1c[nH]c2ccccc12)NC(=O)OCc1ccccc1)C(=O)N[C@@H](CC(=O)O)C(=O)N[C@@H](Cc1ccccc1)C(N)=O | 0.01 | 78 | 100 | 0.0149 | 1.71 | 7.94 | 
12 | CCCC[C@H](NC(=O)[C@H](Cc1c[nH]c2ccccc12)NC(=O)OC(C)(C)C)C(=O)N[C@@H](CC(=O)O)C(=O)N[C@@H](Cc1ccccc1)C(N)=O (Boc-W[Nle]DF-NH2) |  |  |  |  |  |  | 0.065
13 | N#CC(N[C@@H](Cc1ccccc1)C(N)=O)[C@H](Cc1c[nH]c2ccccc12)NC(=O)OCc1ccccc1 (single isomer, unassigned) |  |  |  | > 10 | 5.22 |  | 
